Assay results reported in patent US20260232633A1, “Compositions and Uses Thereof” (Purposeful IKE, priority 2020, published 2026).
Values joined by “and” are separate entries in the source; they are usually repeats but may differ in a detail not shown here. Equal entries are not always repeated.

Legend:
Fmr1 KO mice [1] = assay: Open field test (hyperactivity); assay type: in vivo
Protocol: (§1) Fmr1 KO mice backcrossed to the FVB strain and WT littermates were used during experiments. TransnetXY Automated Genotyping (www.transnetyx.com/). TRANSNETYX, INC., 8110 Cordova Rd. Suite 119, Cordova, TN 38016, USA was used for genotyping. The animals were pretreated for 14 days. The active ingredients of Sumatriptan and Ergoloid were in a water carrier, whereas oxitriptan was in a methanol carrier.
(§2) The mice were housed in plastic cages (35×30×12 cm), 5 in each. The room temperature (21±2° C.),relative humidity (55±5%), a 12-h light-dark cycle (lights on 7 a.m.-7 p.m.) and air exchange (16 times per h) were automatically controlled. The animals had free access to commercial food pellets and water. Testing was conducted during the light phase. Ten mice per treatment group were used for the AGS experiments. Experiments were conducted in line with the requirements of the UK Animals (Scientific Procedures) Act, 1986.
All experiments were conducted with the experimenter blind to genotype and drug treatment. Separate investigators prepared and coded dosing solutions, allocated the mice to the study treatment groups, dosed the animals, and collected the Audiogenic Seizure data. […]
For hyperactivity, the open field test (OFT) is a common measure of exploratory behavior and general activity in both mice and rats, where both the quality and quantity of the activity can be measured. […]

Fmr1 KO mice [2] = assay: Stereotypy: self-grooming; assay type: in vivo; details: for Stereotypy: Mean 2 (mean of treated KO group): Table 8, KO-V mean 45.40, WT-V 31.60, doses as E19
Protocol: as §1, §2
(§3) All experiments were conducted with the experimenter blind to genotype and drug treatment. Separate investigators prepared and coded dosing solutions, allocated the mice to the study treatment groups, dosed the animals, and collected the Audiogenic Seizure data.
(§4) Behavior testing was conducted at 2 weeks. The behavioral tests were as follows: 1. Hyperactivity: Open field; 2. Stereotypy: Self-grooming; 3. Sociability: Three chamber partition test; 4. Memory and Learning: Novel Object Recognition; 5. Anxiety: hyponeophagia; and 6. Test of daily living: marble burying
For stereotypy, self-grooming was assessed. Self-grooming in animals is an innate behaviour that is involved in hygiene maintenance and other physiologically important processes, including thermoregulation, social communication and de-arousal. It is one of the most frequently observed behaviours in awake rodents and has a patterned, sequential organization with characteristic cephalocaudal progression (Kalueff 2016).
(§5) The treatment of the mice with OX (Oxitriptan), SU (Sumatriptan), ER (Ergoloid mesylates, also referred to as ergoloid herein) were according to the matrix shown below in Table 1. […]

Fmr1 KO mice [3] = assay: Sociability: three chamber partition test; assay type: in vivo; design: unit not given here; details: for Sociability: Mean Diff., F_KO-V vs. F_ treated KO (Dunnett) / Sociability: Mean Diff., F_KO-V vs. N_ treated KO (Dunnett): against F_KO-V; for Sociability: Mean Diff., F_KO-V vs. F_ treated KO (Dunnett): Sumatriptan 20, Oxitriptan 40, Ergoloid 4, Ergoloid 2 + Oxitriptan 40 mg/kg; for Sociability, F_KO / Sociability, N_KO: individual animal values
Protocol: as §1, §2, §3, §4
For sociability a three chamber partition test was utilized. The three-chamber paradigm test known as Crawley's sociability and preference for social novelty protocol has previously been successfully employed to study social affiliation and social memory in several inbred and mutant mouse lines. The main principle of the test was based on the free choice by a subject mouse to spend time in any of three box's compartments during two experimental sessions, including indirect contact with one or two mice with which it was unfamiliar (Kaidanovich-Beilin 2011).
as §5

Fmr1 KO mice [4] = assay: Memory and learning: Novel Object Recognition (NOR); assay type: in vivo; design: unit not given here; details: for NOR: Mean Diff., F_KO-V vs. F_ treated KO (Dunnett) / NOR: Mean 2 (mean of F_ treated KO group): F_ values; for NOR: Mean Diff., F_KO-V vs. F_ treated KO (Dunnett) / NOR: Mean Diff., F_KO-V vs. N_ treated KO (Dunnett): against F_KO-V; for NOR: Mean Diff., F_KO-V vs. F_ treated KO (Dunnett): Sumatriptan 20, Oxitriptan 40, Ergoloid 4, Ergoloid 2 + Oxitriptan 40 mg/kg; for Novel Object Recognition, F_KO / Novel Object Recognition, N_KO: individual animal values
Protocol: as §1, §2, §3, §4
For memory and learning, a novel object recognition (NOR) task was used to evaluate the rodents' ability to recognize a novel object in the environment. […] The task procedure consists of three phases: habituation, familiarization, and test phase (Antunes 2012).
as §5

Fmr1 KO mice [5] = assay: Anxiety: hyponeophagia test; assay type: in vivo
Protocol: as §1, §2, §3
Behavior testing was conducted at 2 weeks. […]
For anxiety a hyponeophagia test was conducted. […] The amounts ingested then gradually increase until the animal has determined whether the substance is safe and nutritious. […]

Fmr1 KO mice [6] = assay: Test of daily living (marble burying / nesting); assay type: in vivo; design: scale not given here; details: for Tests of daily living: individual animal values
Protocol: as §1, §2, §3, §4
For test of daily living, nesting was assessed as nest building is an innate behavior in rodents, even when raised in laboratory settings. Synthetic and/or natural materials (such as twine, tissue, cotton, paper, and hay) are provided as a gauge of their overall well-being and as an ancillary assessment to predict the possible decline in cognition. Typically, changes in nesting behaviors, such as failure to create a nest, indicate a change in health or welfare. In addition, nesting behavior is sensitive to many environmental and physiological challenges, as well as many genetic mutations underlying pathological disease states (Gaskill 2013).
(§6) The treatment of the mice with OX (Oxitriptan), SU (Sumatriptan), ER (Ergoloid mesylates, also referred to as ergoloid herein) were according to the matrix shown below in Table 1.
(§7) The experimental procedures described above for Example 1 were used in the following tests, as well as the addition of two further behaviour tests as described below. An SSRI (selective serotonin re-uptake inhibitor) was co-dosed with the ergoloid mesylates and oxitriptan to assess the effect of the ergoloid mesylates and oxitriptan treatment on a subject already receiving SSRI treatment.

FMR1 mice = assay: Behavioral experiments overall (FXS phenotypes); assay type: in vivo
Protocol: as §1, §4, §6
as §7, with “treatment. […]” for “treatment.”

[7] = Jacobsen J P R 2016; cited from earlier work
[8] = Table 12, N_ values, F_KO-V mean 81.60, doses as E34
[9] = Table 11, F_KO-V mean 6.600, doses as E28
[10] = Table 4, WT-V mean 4.800, KO-V 1.200, doses as E7
[11] = Table 10, KO-V mean 1.200, doses as E25
[12] = against KO-V, Sumatriptan 20, Oxitriptan 40, Ergoloid 4, Ergoloid 2 + Oxitriptan 40 mg/kg
[13] = N_ values, against N_WT-V, Sumatriptan 20, Oxitriptan 40, Ergoloid 4, Ergoloid 2 + Sumatriptan 10, Ergoloid 2 + Oxitriptan 40 mg/kg
[14] = against WT-V, Sumatriptan 20, Oxitriptan 40, Ergoloid 4, Ergoloid 2 + Sumatriptan 10, Ergoloid 2 + Oxitriptan 40 mg/kg

## N[C@@H](Cc1c[nH]c2ccc(O)cc12)C(=O)O [Oxitriptan, 2-amino-3-(5-hydroxy-1H-indol-3-yl)propanoic acid]
Fmr1 KO mice [1]; against WT-V, 14 days QD, Sumatriptan 20, 5-HTP 80, EM 4, Ergoloid 2 + Sumatriptan 10, Ergoloid 2 + Oxitriptan 40 mg/kg
  Open Field: Mean Diff., WT-V vs. treated KO (Dunnett): −512.4
Fmr1 KO mice [2]
  Stereotypy: Mean 2 (mean of treated KO group): 38.30
Fmr1 KO mice [3]; F_ values
  Sociability: Mean Diff., F_KO-V vs. F_ treated KO (Dunnett): 29.51
Fmr1 KO mice [3]; F_KO-Oxitriptan (40 mg/kg)
  Sociability, F_KO: 51 (2×) and 54 and 52 (2×) and 50 (2×) and 53 (2×) and 55
Fmr1 KO mice [3]; N_ values, doses as E34
  Sociability: Mean Diff., F_KO-V vs. N_ treated KO (Dunnett): −17.20
Fmr1 KO mice [3]; N_KO-Oxitriptan (40 mg/kg)
  Sociability, N_KO: 98 (2×) and 97 (2×) and 100 (2×) and 99 (2×) and 96
Fmr1 KO mice [3]; [8]
  Sociability: Mean 2 (mean of N_ treated KO group): 98.80
Fmr1 KO mice [4]
  NOR: Mean Diff., F_KO-V vs. F_ treated KO (Dunnett): −0.03636
Fmr1 KO mice [4]; F_KO-Oxitriptan (40 mg/kg)
  Novel Object Recognition, F_KO: 6 (4×) and 5 (3×) and 9 (2×) and 8 (2×)
Fmr1 KO mice [4]; N_ values, doses as E28
  NOR: Mean Diff., F_KO-V vs. N_ treated KO (Dunnett): −4.218
Fmr1 KO mice [4]; N_KO-Oxitriptan (40 mg/kg)
  Novel Object Recognition, N_KO: 10 (4×) and 12 and 14 and 8 (2×) and 15 and 13 and 9
Fmr1 KO mice [4]; [9]
  NOR: Mean 2 (mean of F_ treated KO group): 6.636
Fmr1 KO mice [5]; KO-Oxitriptan (40 mg/kg), individual animal values
  Hyponeophagia: 150 and 140 (2×)
Fmr1 KO mice [6]; KO-Oxitriptan (40 mg/kg)
  Tests of daily living: 5 (9×) and 4
Fmr1 KO mice [6]; [10]
  Test of daily living: Mean 2 (mean of treated KO group): 4.900
Fmr1 KO mice [6]; [11]
  Test of daily living: Mean 2 (mean of treated KO group): 4.900
FMR1 mice
  Effect on FXS phenotypes in the behavioral experiments (Example 1): ameliorates the FXS phenotypes
[7]
  half life: 2 h

## CNS(=O)(=O)Cc1ccc2[nH]cc(CCN(C)C)c2c1 [Sumatriptan]
Fmr1 KO mice [1]; against KO-V, Sumatriptan 20, Oxitriptan 80, Ergoloid 4, Ergoloid 2 + Oxitriptan 40 mg/kg
  Open Field: Mean Diff., KO-V vs. treated KO (Dunnett): 846.6
Fmr1 KO mice [2]
  Stereotypy: Mean 2 (mean of treated KO group): 30.90
Fmr1 KO mice [2]; [12]
  Stereotypy: Mean Diff., KO-V vs. treated KO (Dunnett): 14.50
Fmr1 KO mice [3]; F_ values
  Sociability: Mean Diff., F_KO-V vs. F_ treated KO (Dunnett): 19.40
Fmr1 KO mice [3]; F_KO-Sumatriptan (20 mg/kg)
  Sociability, F_KO: 61 (2×) and 64 and 65 (2×) and 60 (3×) and 63 (2×)
Fmr1 KO mice [3]; N_ values, doses as E34
  Sociability: Mean Diff., F_KO-V vs. N_ treated KO (Dunnett): −16.60
Fmr1 KO mice [3]; [13]
  Sociability: Mean Diff., N_WT-V vs. N_ treated KO (Dunnett): 0.9000
Fmr1 KO mice [3]; N_KO-Sumatriptan (20 mg/kg)
  Sociability, N_KO: 99 and 97 (2×) and 103 and 98 and 90 and 102 and 100 and 95 and 101
Fmr1 KO mice [3]; Table 6, N_WT-V mean 99.10, N_KO-V 83.90, doses as E13
  Sociability: Mean 2 (mean of N_ treated KO group): 98.20
Fmr1 KO mice [3]; Table 12, F_ values, F_KO-V mean 81.60, doses as E34
  Sociability: Mean 2 (mean of F_ treated KO group): 62.20
Fmr1 KO mice [3]; [8]
  Sociability: Mean 2 (mean of N_ treated KO group): 98.20
Fmr1 KO mice [4]
  NOR: Mean Diff., F_KO-V vs. F_ treated KO (Dunnett): −0.2000
Fmr1 KO mice [4]; F_KO-Sumatriptan (20 mg/kg)
  Novel Object Recognition, F_KO: 9 (2×) and 5 (2×) and 8 (2×) and 7 (2×) and 4 and 6
Fmr1 KO mice [4]; N_ values, doses as E28
  NOR: Mean Diff., F_KO-V vs. N_ treated KO (Dunnett): −0.7000
Fmr1 KO mice [4]; [13]
  NOR: Mean Diff., N_WT-V vs. N_ treated KO (Dunnett): 6.600
Fmr1 KO mice [4]; N_KO-Sumatriptan (20 mg/kg)
  Novel Object Recognition, N_KO: 6 (3×) and 8 (2×) and 9 (3×) and 5 and 7
Fmr1 KO mice [4]; Table 5, N_WT-V mean 13.90, N_KO-V 6.700, doses as E10
  NOR: Mean 2 (mean of N_ treated KO group): 7.300
Fmr1 KO mice [4]; [9]
  NOR: Mean 2 (mean of F_ treated KO group): 6.800
Fmr1 KO mice [4]; Table 11, N_ values, F_KO-V mean 6.600, doses as E28
  NOR: Mean 2 (mean of N_ treated KO group): 7.300
Fmr1 KO mice [5]; [14]
  Hyponeophagia: Mean Diff., WT-V vs. treated KO (Dunnett): −9.200
Fmr1 KO mice [6]; KO-Sumatriptan (20 mg/kg)
  Tests of daily living: 5 (7×) and 4 (3×)
Fmr1 KO mice [6]; [10]
  Test of daily living: Mean 2 (mean of treated KO group): 4.700
Fmr1 KO mice [6]; [11]
  Test of daily living: Mean 2 (mean of treated KO group): 4.700
Fmr1 KO mice [6]; [12]
  Test of daily living: Mean Diff., KO-V vs. treated KO (Dunnett): −3.500
Fmr1 KO mice [6]; [14]
  Test of daily living: Mean Diff., WT-V vs. treated KO (Dunnett): 0.1000
